# In patent US5288709A, “Erythromycin derivatives” (priority 1991, dated 1994):
# Like-named read-outs stand apart in the source and are kept apart here.
# How the values were obtained:
# Escherichia coli JUHL = assay: In-vitro antimicrobial activity primary screen (agar dilution MIC); type: cell-based; details: Escherichia coli, 24 h, Escherichia coli JUHL; BHI agar, 20-24 h
# Procedure, shortened: (§1)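 MIC read after 20-24 hours at 35 37° C as the lowest compound level with no growth, only haze or sparse colonies relative to drug-free growth control. Plates were BHI agar carrying serial compound dilutions, replicator-inoculated at 1:100, or 1:10 for slow-growing strains.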
# [1] = system: Micrococcus luteus ATCC 9341; assay: as above; type: cell-based; details: Micrococcus luteus, ATCC9341, 24 h, BHI agar, 20-24 h
# Procedure, shortened: as §1
# [2] = system: Micrococcus luteus ATCC 4698; assay: as above; type: cell-based; details: Micrococcus luteus, ATCC4698, 24 h, BHI agar, 20-24 h
# Procedure, shortened: as §1
# [3] = system: Pseudomonas aeruginosa BMH10; assay: as above; type: cell-based; details: Pseudomonas aeruginosa, BMH10, 24 h, BHI agar, 20-24 h
# Procedure, shortened: as §1
# Escherichia coli DC-2 = assay: as above; type: cell-based; details: Escherichia coli, DC2, 24 h, Escherichia coli DC-2; BHI agar, 20-24 h
# Procedure, shortened: as §1
# [4] = system: Streptococcus pyrogenes EES61; assay: as above; type: cell-based; details: BHI agar, 20-24 h, read-out: MIC
# Procedure, shortened: as §1
# [5] = system: Streptococcus bovis A5169; assay: as above; type: cell-based; details: Streptococcus equinus, A5169, 24 h, BHI agar, 20-24 h
# Procedure, shortened: as §1
# Acinetobacter SP CMX 669 = assay: as above; type: cell-based; details: Acinetobacter, SPCMX669, 24 h, Acinetobacter SP CMX 669; BHI agar, 20-24 h
# Procedure, shortened: as §1
# Pseudomonas cepacia 2961 = assay: as above; type: cell-based; details: Burkholderia cepacia, 2961, 24 h, BHI agar, 20-24 h
# Procedure, shortened: as §1
# [6] = system: Staphylococcus aureus ATCC 6538P; assay: as above; type: cell-based; details: Staphylococcus aureus, ATCC6538P, 24 h, BHI agar, 20-24 h
# Procedure, shortened: as §1
# [7] = system: Pseudomonas aeruginosa A5007; assay: as above; type: cell-based; details: Pseudomonas aeruginosa, A5007, 24 h
# Procedure, shortened: as §1
# [8] = system: Pseudomonas aeruginosa K799/WT; assay: as above; type: cell-based; details: Pseudomonas aeruginosa, K799/WT, 24 h, Pseudomonas aeruginosa K799/WT; BHI agar, 20-24 h
# Procedure, shortened: as §1
# Escherichia coli H560 = assay: as above; type: cell-based; details: Escherichia coli, H560, 24 h, Escherichia coli H560; BHI agar, 20-24 h
# Procedure, shortened: as §1
# [9] = system: Pseudomonas aeruginosa K799/61; assay: as above; type: cell-based; details: Pseudomonas aeruginosa K799/61; BHI agar, 20-24 h; read-out: MIC
# Procedure, shortened: as §1
# [10] = system: Staphylococcus aureus A5177; assay: as above; type: cell-based; details: Staphylococcus aureus, A5177, 24 h, Staphylococcus aureus A5177; BHI agar, 20-24 h
# Procedure, shortened: as §1
# Staphylococcus aureus 45 = assay: as above; type: cell-based; details: BHI agar, 20-24 h, read-out: MIC
# Procedure, shortened: as §1
# [11] = system: Staphylococcus epidermidis 3519; assay: as above; type: cell-based; details: BHI agar, 20-24 h, read-out: MIC
# Procedure, shortened: as §1
# [12] = system: Streptococcus agalactiae CMX 508; assay: as above; type: cell-based; details: Streptococcus agalactiae, CMX508, 24 h, BHI agar, 20-24 h
# Procedure, shortened: as §1
# [13] = system: Staphylococcus aureus 45 RAR2; assay: as above; type: cell-based; details: Staphylococcus aureus, 45RAR2, 24 h, BHI agar, 20-24 h
# Procedure, shortened: as §1
# [14] = system: Enterobacter aerogenes ATCC 13048; assay: as above; type: cell-based; details: Klebsiella aerogenes, ATCC13048, 24 h, Enterobacter aerogenes ATCC 13048; BHI agar, 20-24 h
# Procedure, shortened: as §1
# [15] = system: Streptococcus pyrogenes 2548 INDUC; assay: as above; type: cell-based; details: Streptococcus, 2548INDUC, 24 h, BHI agar, 20-24 h
# Procedure, shortened: as §1
# Escherichia coli SS = assay: as above; type: cell-based; details: Escherichia coli, 24 h, BHI agar, 20-24 h
# Procedure, shortened: as §1
# [16] = system: Enterococcus faecium ATCC 8043; assay: as above; type: cell-based; details: Enterococcus faecium, ATCC8043, 24 h
# Procedure, shortened: as §1
# [17] = system: Providencia stuartii CMX 640; assay: as above; type: cell-based; details: Providencia stuartii, CMX640, 24 h
# Procedure, shortened: as §1
# [18] = system: Staphylococcus aureus (NCTC 10649); assay: In-vivo acute mouse protection assay; design: species or system Staphylococcus aureus; female Swiss albino mice; details: Staphylococcus aureus, dosed 1 and 5 h post-infection, observed 7 days, read-out: ED50
# Experimental: An acute mouse protection test was conducted on ten mice with each of three concentrations of selected compounds of the invention. Each concentration was a four-fold dilution of the previous concentration. The initial concentration will vary with the microorganism with which the mouse is challenged.
# The acute mouse protection test was conducted on female, Swiss albino mice, 18-20 grams in weight. […] To check the potency of the inoculum, a titration of the indicated test organism was carried out in control animals. The titration determines the LD50 for a particular microorganism. The treatment groups of animals were dosed orally, by gavage, or subcutaneously with the test compounds at 1 and 5 hours post-infection and observed for 7 days. The ED50 were calculated using the mortality data collected.
# [19] = system: Staphylococcus aureus CMX 553; assay: In-vitro antimicrobial activity primary screen (agar dilution MIC); type: cell-based; details: Staphylococcus aureus, CMX553, 24 h, BHI agar, 20-24 h, read-out: MIC
# Procedure, shortened: (§2)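 MIC is read as the lowest compound level yielding no growth, slight haze or sparse colonies on the inoculum spot, relative to a drug-free plate. Strains were replicator-inoculated (1:100 dilution) onto BHI agar plates holding twelve dilutions and held at 35-37 °C for 20-24 h, with erythromycin A as comparator.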
# [20] = system: Staphylococcus aureus CMX 503A; assay: as above; type: cell-based; details: Staphylococcus aureus, CMX503A, 24 h, BHI agar, 20-24 h, read-out: MIC
# Procedure, shortened: as §2
# [21] = system: Staphylococcus aureus CMX 686B; assay: as above; type: cell-based; details: CMX686B, BHI agar, 20-24 h, read-out: MIC
# Procedure, shortened: as §2
smiles,measurement,setting,value
"CC[C@H]1OC(=O)[C@H](C)[C@@H](O[C@H]2C[C@@](C)(OC)[C@@H](O)[C@H](C)O2)[C@H](C)[C@@H](O[C@@H]2O[C@H](C)C[C@H](N(C)C)[C@H]2O)[C@](C)(O)C[C@@H](C)[C@@H]2O[C@@]1(C)[C@@H](O)[C@H]2C [Example 4, (9S,11S)-9-Deoxo-12-deoxy-9,12-epoxyerythromycin A]",MIC,Escherichia coli JUHL,25 µg/mL
same,MIC,[1],0.05 µg/mL
same,MIC,[2],0.1 µg/mL
same,MIC,[3],50 µg/mL
same,MIC,Escherichia coli DC-2,50 µg/mL
same,MIC,[4],0.01 µg/mL
same,MIC,[5],0.02 µg/mL
same,MIC,Acinetobacter SP CMX 669,3.1 µg/mL
same,MIC,Pseudomonas cepacia 2961,> 100 µg/mL
same,MIC,[6],0.2 µg/mL
same,MIC,[7],> 100 µg/mL
same,MIC,[8],100 µg/mL
same,MIC,Escherichia coli H560,25 µg/mL
same,MIC,[9],0.39 µg/mL
same,MIC,[10],3.1 µg/mL
same,MIC,Staphylococcus aureus 45,0.2 µg/mL
same,MIC,[11],0.2 µg/mL
same,MIC,[12],0.05 µg/mL
same,MIC,[13],0.39 µg/mL
same,MIC,[14],50 µg/mL
same,MIC,[15],3.1 µg/mL
same,MIC,Escherichia coli SS,0.2 µg/mL
same,MIC,[16],0.1 µg/mL
same,MIC,[17],> 100 µg/mL
same,ED50,"[18]; NCTC10649, 168 h, oral",55 mg/kg
same,ED50,"[18]; NCTC10649, sc, 168 h, subcutaneous",22.6 mg/kg
same,MIC,[19],0.2 µg/mL
same,MIC,[20],0.2 µg/mL
same,MIC,[21],0.2 µg/mL
